# Measured values as given in US20240041042A1, “1-(PYRIDYL)-5-AZINYLPYRAZOLE DERIVATIVES, AND THEIR USE FOR CONTROL OF UNDESIRED PLANT GROWTH” (Bayer Aktiengesellschaft, priority 2020, published 2024).
# Where two headings read alike, the source gives them in different places.
# Columns and labels:
# Type in all cases: in vivo
# [1] = tested on: Amaranthus retroflexus (AMARE); test: Pre-emergence herbicidal action against AMARE; conditions: visual scoring after about 3 weeks vs untreated controls
# How it was run: (§1)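 Herbicide applied to soil before seedling emergence, at 600 l/ha spray volume with 0.5% additive and rates up to 320 g/ha. Evaluation: visual percentage effect, about 3 weeks later, greenhouse-grown pots compared with untreated ones.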
# [2] = tested on: Echinochloa crus-galli (ECHCG); test: Pre-emergence herbicidal action against ECHCG; conditions: dosage 320 g/ha
# How it was run: as §1
# [3] = tested on: Avena fatua (AVEFA); test: Pre-emergence herbicidal action against AVEFA; conditions: 320 g/ha, visual scoring after about 3 weeks vs untreated controls
# How it was run: as §1
# [4] = tested on: Matricaria inodora (MATIN); test: Pre-emergence herbicidal action against MATIN; conditions: dosage 320 g/ha
# How it was run: as §1
# [5] = tested on: Verconica persica (VERPE); test: Pre-emergence herbicidal action against VERPE; conditions: dosage 320 g/ha
# How it was run: as §1
# [6] = tested on: Alopecurus myosuroides (ALOMY); test: Pre-emergence herbicidal action against ALOMY; conditions: scored visually after about 3 weeks, 100% = plants have died
# How it was run: as §1
# [7] = tested on: Setaria viridis (SETVI); test: Pre-emergence herbicidal action against SETVI
# How it was run: as §1
# [8] = tested on: Polygonum convolvulus (POLCO); test: Pre-emergence herbicidal action against POLCO
# How it was run: as §1
# [9] = tested on: Viola tricolor (VIOTR); test: Pre-emergence herbicidal action against VIOTR
# How it was run: as §1
# [10] = tested on: Lolium rigidum (LOLRI); test: Pre-emergence herbicidal action against LOLRI; conditions: dosage 320 g/ha
# How it was run: as §1
# [11] = tested on: Oryza sativa (ORYSA); conditions: crop plant compatibility
# How it was run: (§2)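 Foliar application at the one-leaf stage: WP/EC formulation, 0.5% additive, 600 l/ha water. Greenhouse-grown in sandy loam. Endpoint is visual % injury relative to untreated controls at about 3 weeks.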
# [12] = tested on: Triticum aestivum (TRZAS); conditions: crop plant compatibility, 80 g/ha, effect vs untreated controls
# How it was run: as §2
# [13] = tested on: Amaranthus retroflexus (AMARE); test: Post-emergence herbicidal action against AMARE
# How it was run: (§3)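 Doses of 320 g/ha or lower, suffixes a, b and c marking different dosages, were applied post-emergence at the one-leaf stage in 600 l/ha water with 0.5% additive. Damage was assessed visually after about 3 weeks in the greenhouse.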
# [14] = tested on: Alopecurus myosuroides (ALOMY); test: Post-emergence herbicidal action against ALOMY; conditions: visual rating about 3 weeks after treatment vs untreated controls (100% = plants have died, 0% = like control plants)
# How it was run: as §3
# [15] = tested on: Polygonum convolvulus (POLCO); test: Post-emergence herbicidal action against POLCO
# How it was run: as §3
# [16] = tested on: Zea mays (ZEAMX); conditions: pre-emergence, 80 g/ha, crop plant compatibility, in comparison to untreated controls
# How it was run: (§4)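 Scoring: visual, % of untreated control, about 3 weeks after a pre-emergence application to the soil surface. Application used WP or EC formulations diluted in water with 0.5% additive at 600 l/ha; dosage levels are marked by suffixes a, b and c.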
# [17] = tested on: Oryza sativa (ORYSA); conditions: pre-emergence, 80 g/ha, crop plant compatibility, in comparison to untreated controls
# How it was run: as §4
# [18] = tested on: Echinochloa crus-galli (ECHCG); test: Post-emergence herbicidal action against ECHCG
# How it was run: as §3
# [19] = tested on: Abutilon theophrasti (ABUTH); test: Pre-emergence herbicidal action against ABUTH; conditions: Dosage column 320 g/ha (title prints 3200 g/ha); scored visually after about 3 weeks; 100% = plants have died
# How it was run: as §1
# [20] = tested on: Digitaria sanguinalis (DIGSA); test: Post-emergence herbicidal action against DIGSA; conditions: 80 g/ha, visual rating about 3 weeks after treatment
# How it was run: as §3
# [21] = tested on: Abutilon theophrasti (ABUTH); test: Post-emergence herbicidal action against ABUTH; conditions: 80 g/ha, visual rating about 3 weeks after treatment vs untreated controls (100% = plants have died, 0% = like control plants)
# How it was run: as §3
# [22] = tested on: Setaria viridis (SETVI); test: Post-emergence herbicidal action against SETVI; conditions: dosage 80 g/ha
# How it was run: as §3
# [23] = tested on: Digitaria sanguinalis (DIGSA); test: Pre-emergence herbicidal action against DIGSA
# How it was run: as §1
# [24] = tested on: Zea mays (ZEAMX); conditions: 20 g/ha, ZEAMX, effect in comparison to untreated controls
# How it was run: as §2
# [25] = tested on: Pharbitis purpurea (PHBPU); test: Pre-emergence herbicidal action against PHBPU; conditions: dosage 320 g/ha
# How it was run: as §1
# [26] = tested on: Pharbitis purpurea (PHBPU); test: Post-emergence herbicidal action against PHBPU; conditions: dosage 80 g/ha
# How it was run: as §3
# [27] = tested on: Viola tricolor (VIOTR); test: Post-emergence herbicidal action against VIOTR; conditions: 80 g/ha
# How it was run: as §3
# [28] = 80 g/ha, effect in comparison to untreated controls
# [29] = 80 g/ha, visual rating about 3 weeks after treatment vs untreated controls (100% = plants have died, 0% = like control plants)
SMILES,Pre-emergence action against AMARE in % ([1]; 320 g/ha) [%],Pre-emergence action against ECHCG in % [2] [%],Pre-emergence action against AVEFA in % [3] [%],Pre-emergence action against MATIN in % [4] [%],Pre-emergence action against VERPE in % [5] [%],Pre-emergence action against ALOMY ([6]; 320 g/ha) [%],Pre-emergence action against SETVI in % ([7]; dosage 80 g/ha) [%],Pre-emergence action against SETVI in % ([7]; dosage 320 g/ha) [%],Pre-emergence action against POLCO in % ([8]; dosage 80 g/ha) [%],Pre-emergence action against POLCO in % ([8]; dosage 320 g/ha) [%],"Pre-emergence action against VIOTR in % ([9]; 320 g/ha, Viola tricolor) [%]",Pre-emergence action against VIOTR in % ([9]; dosage 80 g/ha) [%],Pre-emergence action against LOLRI in % [10] [%],"Post-emergence action against ORYSA in % [11, 28] [%]","Post-emergence action against AMARE in % [13, 29] [%]",Pre-emergence action against ZEAMX in % [16] [%],Pre-emergence action against ABUTH [19] [%],further results
O=C(O)C1CCCN1C(=O)COc1nn(-c2ccccn2)c(-c2ccc(F)nc2)c1Br (centres unmarked) [Example I-111],100,100,80,80,90,90,90,100,80,100,100,80,100,0,80,0,80,"Pre-emergence action against AMARE in % ([1]; 80 g/ha): 90%; Post-emergence action against ORYSA in % ([11]; 320 g/ha, effect in comparison to untreated controls): 0%; Post-emergence action against TRZAS in % [12]: 0%; Post-emergence action against AMARE in % ([13]; 320 g/ha, visual rating about 3 weeks after treatment): 90%; Post-emergence action against ALOMY in % ([14]; 320 g/ha): 100%; Post-emergence action against POLCO in % ([15]; dosage 320 g/ha): 80%; Pre-emergence action against ORYSA in % [17]: 0%; Post-emergence action against ECHCG in % ([18]; dosage 320 g/ha): 90%"
CN(C)S(=O)(=O)NC(=O)COc1nn(-c2ncccc2F)c(-c2ccc(F)nc2)c1Br [Example I-36],100,100,90,100,100,100,100,100,80,90,100,100,100,0,80,0,80,"Post-emergence action against DIGSA in % [20]: 90%; Post-emergence action against ABUTH in % [21]: 80%; Post-emergence action against SETVI in % [22]: 80%; Pre-emergence action against ALOMY ([6]; 80 g/ha): 100%; Pre-emergence action against DIGSA in % ([23]; 80 g/ha, visual scoring after about 3 weeks vs untreated controls): 100%; Pre-emergence action against DIGSA in % ([23]; dosage 320 g/ha): 100%; Post-emergence action against ZEAMX in % (crop plant compatibility) [24]: 20%; Post-emergence action against ORYSA in % ([11]; 20 g/ha, effect vs untreated controls): 0%; Pre-emergence action against PHBPU in % [25]: 100%; Post-emergence action against ALOMY in % ([14]; 80 g/ha): 90%; Post-emergence action against POLCO in % ([15]; dosage 80 g/ha): 80%; Post-emergence action against ECHCG in % ([18]; dosage 80 g/ha): 90%; Post-emergence action against PHBPU in % [26]: 80%; Post-emergence action against VIOTR in % [27]: 90%"
